Measurements as given in publication PMC6442119, “The antitumor activity of CYB-L10, a human topoisomerase IB catalytic inhibitor” (Journal of Enzyme Inhibition and Medicinal Chemistry, 2019).

Legend:
786-0 = test: NCI60 assay; format: cell-based; settings: Homo sapiens; Renal cancer, 786-0, 48 h
Description: (§1) CYB-L10 was tested using the protocols by the NCI, which has been described previously. […] The overall antiproliferative potential is quantified as a mean-graph midpoint (MGM). […] It was selected and submitted to National Cancer Institute (NCI, USA) for a developmental therapeutics assay against the 60 clinical tumor cell lines representing nine tissue types (NCI60)[23–25]. The tumor cells were incubated with CYB-L10 for 48 h and stained with sulphorhodamine B dye. Cell growth inhibition (GI50) was calculated relative to the control without compound.

A549/ATCC = test: NCI60 assay; format: cell-based; settings: Homo sapiens, Non-small cell lung cancer, 48 h
Description: as §1

ACHN = test: NCI60 assay; format: cell-based; settings: Homo sapiens, Renal cancer, 48 h
Description: as §1

BT-549 = test: NCI60 assay; format: cell-based; settings: Homo sapiens; Breast cancer, BT-549, 48 h
Description: as §1

CAKI-1 = test: NCI60 assay; format: cell-based; settings: Homo sapiens; Renal cancer, CAKI-1, 48 h
Description: as §1

DU-145 = test: NCI60 assay; format: cell-based; settings: Homo sapiens, Prostate cancer, DU-145, 48 h
Description: as §1

EKVX = test: NCI60 assay; format: cell-based; settings: Homo sapiens, Non-small cell lung cancer, 48 h
Description: as §1

HCC-2998 = test: NCI60 assay; format: cell-based; settings: Homo sapiens; Colon cancer, HCC-2998, 48 h
Description: as §1

HCT-15 = test: NCI60 assay; format: cell-based; settings: Homo sapiens; Colon cancer, HCT-15, 48 h
Description: as §1

HT29 = test: NCI60 assay; format: cell-based; settings: Homo sapiens, HT-29; Colon cancer, HT29, 48 h
Description: as §1

IGROV1 = test: NCI60 assay; format: cell-based; settings: Homo sapiens, IGROV-1; Ovarian cancer, IGROV1, 48 h
Description: as §1

MCF7 = test: NCI60 assay; format: cell-based; settings: Homo sapiens, Breast cancer, MCF7, 48 h
Description: as §1

MDA-MB-231/ATCC = test: NCI60 assay; format: cell-based; settings: Homo sapiens, Breast cancer, 48 h
Description: as §1

MDA-MB-468 = test: NCI60 assay; format: cell-based; settings: Homo sapiens; Breast cancer, MDA-MB-468, 48 h
Description: as §1

NCI-H226 = test: NCI60 assay; format: cell-based; settings: Homo sapiens; Non-small cell lung cancer, NCI-H226, 48 h
Description: as §1

NCI-H522 = test: NCI60 assay; format: cell-based; settings: Homo sapiens; Non-small cell lung cancer, NCI-H522, 48 h
Description: as §1

NCI/ADR-RES = test: NCI60 assay; format: cell-based; settings: Homo sapiens, Ovarian cancer, 48 h
Description: as §1

OVCAR-3 = test: NCI60 assay; format: cell-based; settings: Homo sapiens; Ovarian cancer, OVCAR-3, 48 h
Description: as §1

OVCAR-5 = test: NCI60 assay; format: cell-based; settings: Homo sapiens; Ovarian cancer, OVCAR-5, 48 h
Description: as §1

PC-3 = test: NCI60 assay; format: cell-based; settings: Homo sapiens; Prostate cancer, PC-3, 48 h
Description: as §1

RPMI-8226 = test: NCI60 assay; format: cell-based; settings: Homo sapiens; Leukemia, RPMI-8226, 48 h
Description: as §1

RXF 393 = test: NCI60 assay; format: cell-based; settings: Homo sapiens; Renal cancer, RXF 393, 48 h
Description: as §1

SF-268 = test: NCI60 assay; format: cell-based; settings: Homo sapiens; CNS cancer, SF-268, 48 h
Description: as §1

SF-295 = test: NCI60 assay; format: cell-based; settings: Homo sapiens; CNS cancer, SF-295, 48 h
Description: as §1

SF-539 = test: NCI60 assay; format: cell-based; settings: Homo sapiens; CNS cancer, SF-539, 48 h
Description: as §1

SK-MEL-28 = test: NCI60 assay; format: cell-based; settings: Homo sapiens; Melanoma, SK-MEL-28, 48 h
Description: as §1

SK-MEL-2 = test: NCI60 assay; format: cell-based; settings: Homo sapiens; Melanoma, SK-MEL-2, 48 h
Description: as §1

SN 12C = test: NCI60 assay; format: cell-based; settings: Homo sapiens, SN12C, Renal cancer, 48 h
Description: as §1

SNB-75 = test: NCI60 assay; format: cell-based; settings: Homo sapiens; CNS cancer, SNB-75, 48 h
Description: as §1

SR = test: NCI60 assay; format: cell-based; settings: Homo sapiens, Leukemia, 48 h
Description: as §1

SW-620 = test: NCI60 assay; format: cell-based; settings: Homo sapiens; Colon cancer, SW-620, 48 h
Description: as §1

U251 = test: NCI60 assay; format: cell-based; settings: Homo sapiens, U-251; CNS cancer, U251, 48 h
Description: as §1

UACC-257 = test: NCI60 assay; format: cell-based; settings: Homo sapiens; Melanoma, UACC-257, 48 h
Description: as §1

UO-31 = test: NCI60 assay; format: cell-based; settings: Homo sapiens; Renal cancer, UO-31, 48 h
Description: as §1

HCT116 cells = test: Apoptosis analysis, flow cytometry annexin V-FITC/PI; format: cell-based, human; settings: 9 μM, 24 h
Description: HCT116 cells (3.0 × 10^5 cells/mL) were grown in culture medium on 6-well plates and incubated in the presence or absence of CYB-L10 (1, 3, and 9 µM) for 24 h. And then, the cells were harvested and washed with cold PBS buffer, resuspended in 1 × binding buffer, and then stained with 5 µL Annexin V-FITC and 5 µL propidium iodide (KeyGEN BioTECH, Nanjing, China) for 15 min in dark. The stained cells were analyzed by using flow cytometry (BD, FACSCalibur, Franklin Lakes, NJ, USA) within 1 h. The experiments were repeated independently for three times.
To estimate the effect of CYB-L10 on apoptosis, flow cytometry analysis using double staining with annexin V-FITC/PI was carried out for HCT116 cells. […] CYB-L10 induced the major population of HCT116 cells into the late apoptotic stage 47.39% at 9 μM concentration.

SMILES: O=C1c2cccnc2C(=O)c2c1c(C(=O)OCCN1CCOCC1)c1ccccn21 [CYB-L10]
- GI50 (786-0): 29 nM
- GI50 (A549/ATCC): 20.5 nM
- GI50 (ACHN): < 10 nM
- GI50 (BT-549): 55.8 nM
- GI50 (CAKI-1): 33.9 nM
- GI50 (DU-145): 30.5 nM
- GI50 (EKVX): 1360 nM
- GI50 (HCC-2998): 252 nM
- GI50 (HCT-15): 39.5 nM
- GI50 (HT29): 580 nM
- GI50 (IGROV1): 46.2 nM
- GI50 (MCF7): < 10 nM
- GI50 (MDA-MB-231/ATCC): 1620 nM
- GI50 (MDA-MB-468): 1820 nM
- GI50 (NCI-H226): 28.9 nM
- GI50 (NCI-H522): 11.9 nM
- GI50 (NCI/ADR-RES): 36.8 nM
- GI50 (OVCAR-3): 170 nM
- GI50 (OVCAR-5): 648 nM
- GI50 (PC-3): 190 nM
- GI50 (RPMI-8226): 166 nM
- GI50 (RXF 393): 35.1 nM
- GI50 (SF-268): 18.5 nM
- GI50 (SF-295): 25.7 nM
- GI50 (SF-539): < 10 nM
- GI50 (SK-MEL-28): 54.6 nM
- GI50 (SK-MEL-2): 46.2 nM
- GI50 (SN 12C): < 10 nM
- GI50 (SNB-75): < 10 nM
- GI50 (SR): < 10 nM
- GI50 (SW-620): < 10 nM
- GI50 (U251): 10.9 nM
- GI50 (UACC-257): 54.6 nM
- GI50 (UO-31): 13 nM
- A2 quadrant cells (late apoptotic stage) (HCT116 cells): 47.39%
